Where two headings read alike, the source gives them in different places.
Assays:
[1] = system: MCF-10A (human mammary gland epithelial) cell line; assay: Cell viability assay (MTT) on normal cell line; assay type: cell-based; conditions: 50 µM, four days
Description: (§1) A cell viability test was performed using MCF-10A (human mammary gland epithelial) cell line to investigate the effect of 4a–e and 7a–e on normal cell lines. In this investigation, a concentration of 50 µM of the studied compound is employed for four days, after which cell viability is assessed.
(§2) 4.2. Biological evaluation
(§3) 4.2.1. Cytotoxic activity using MTT Assay and evaluation of IC50
(§4) MTT assay was carried out to study the effect of compounds on mammary epithelial cells (MCF-10A). The medium in which cells were propagated contained Dulbecco's modified Eagle's medium (DMEM)/ Ham's F-12 medium (1:1) supplemented with epidermal growth factor (20 ng/mL), hydrocortisone (500 ng/mL), insulin (10 μg/mL), 2 mM glutamine and 10% foetal calf serum. After every 2-3 days, the cells were passaged using trypsin ethylenediamine tetra acetic acid (EDTA). The cells were seeded at a density of 10^4 cells mL-1 in flat-bottomed culture plates containing 96 wells each. After 24 h, medium was removed from the plates and the compounds in (in 0.1% DMSO) were added (in 200 μL medium to yield a final concentration of 0.1% v/v) to the wells of plates. A single compound was designated with four wells followed by incubation of plates for 96h at 37°C. After incubation, medium was removed completely from the plates followed by addition of MTT (0.4 mg/mL in medium) to each well and subsequent incubation of plates for 3h. MTT (along with the medium) was removed and DMSO (150μL) was added to each well of the culture plates, followed by vortexing and subsequent measurement of absorbance (at 540 nm) using microplate reader. […]

[2] = system: Panc-1 (pancreas cancer cell line); assay: Antiproliferative assay; assay type: cell-based, human; conditions: read-out: Antiproliferative Activity IC50 ± SEM, Panc-1
Description: as §2
4.2.1. Cytotoxic activity using MTT Assay and evaluation of IC50 […]
cells were seeded at a density of 10^4 cells mL-1 in flat-bottomed culture plates containing 96 wells each. After 24 h, medium was removed from the plates and the compounds in (in 0.1% DMSO) were added (in 200 μL medium to yield a final concentration of 0.1% v/v) to the wells of plates. A single […]
incubation, medium was removed completely from the plates followed by addition of MTT (0.4 mg/mL in medium) to each well and subsequent incubation of plates for 3h. MTT (along with the medium) was removed and DMSO (150μL) was added to each well of the culture plates, followed by vortexing and subsequent measurement of absorbance (at 540 nm) using microplate reader. The data […]
(§5) 4.2.1.2. Assay for antiproliferative effect
(§6) To explore the antiproliferative potential of compounds MTT assay was performed according to previously reported procedure using different cell lines to explore the antiproliferative potential of compounds propidium iodide fluorescence assay was performed using different cell lines. To calculate the total nuclear DNA, a fluorescent dye (propidium iodide, PI) is used which can attach to the DNA, thus offering a quick and precise technique. PI cannot pass through the cell membrane and its signal intensity can be considered as directly proportional to quantity of cellular DNA. Cells whose cell membranes are damaged or have changed permeability are counted as dead ones. The assay was performed by seeding the cells of different cell lines at a density of 3000-7500 cells/well (in 200µl […]
(§7) atmospheric conditions. The medium was removed; the compounds were added to the plates at 10 µM concentrations (in 0.1% DMSO) in triplicates, followed by incubation for 48 h. DMSO (0.1%) was used as control. After incubation, medium was removed followed by the addition of PI (25 µl, 50µg/mL in water/medium) to each well of the plates. At -80 °C, the plates were allowed to freeze for 24 h, followed by thawing at 25 °C. A fluorometer (Polar-Star BMG Tech) was used to record the readings at excitation and emission wavelengths of 530 and 620 nm for each well. The percentage cytotoxicity of compounds was calculated using the following formula:
(§8) Where ATC= Absorbance of treated cells and AC= Absorbance of control. […]
(§9) positive control in the assay.

[3] = system: four tested cancer cell lines (A-549, MCF-7, Panc-1, HT-29); assay: Antiproliferative assay, average over the four cell lines; assay type: cell-based, human; conditions: for GI50: mean of the four cancer cell lines
Description: The newly synthesized compounds were tested for antiproliferative activity against four different types of cancer cells: A-549 (epithelial cancer cell line), MCF-7 (breast cancer cell line), Panc-1 (pancreas cancer cell line), and HT-29 (colon cancer cell line).
After 24 h, medium was removed from the plates and the compounds in (in 0.1% DMSO) were added (in 200 μL medium to yield a final concentration of 0.1% v/v) to the wells of plates. A single compound was designated with four wells followed by incubation of plates for 96h at 37°C. After incubation, medium was removed completely from the plates followed by addition of MTT (0.4 mg/mL in medium) to each well and subsequent incubation of plates for 3h. MTT (along with the medium) was removed and DMSO (150μL) was added to each well of the culture plates, followed by vortexing and subsequent measurement of absorbance (at 540 nm) using microplate reader. The data are shown as percentage inhibition of proliferation in comparison with controls containing 0.1% 4.2.1.2. Assay for antiproliferative effect
To explore the antiproliferative potential of compounds MTT assay was performed according to previously reported procedure using different cell lines to explore the antiproliferative potential of compounds propidium iodide fluorescence assay was performed using different cell lines. To calculate the total nuclear DNA, a fluorescent dye (propidium iodide, PI) is used which can attach to the DNA, thus offering a quick and precise technique. PI cannot pass through the cell membrane and its signal intensity can be considered as directly proportional to quantity of cellular DNA. Cells whose cell membranes are damaged or have changed permeability are counted as dead ones. The assay was performed by seeding the cells of different cell lines at a density of 3000-7500 cells/well (in 200µl medium) in culture plates followed by incubation for 24h at 37 °C in humidified 5% CO2/95% air atmospheric conditions. The medium was removed; the compounds were added to the plates at 10 µM concentrations (in 0.1% DMSO) in triplicates, followed by incubation for 48 h. DMSO (0.1%) was used as control. After incubation, medium was removed followed by the addition of PI (25 µl, 50µg/mL in water/medium) to each well of the plates. At -80 °C, the plates were allowed to freeze for 24 h, followed by thawing at 25 °C. A fluorometer (Polar-Star BMG Tech) was used to record the readings at excitation and emission wavelengths of 530 and 620 nm for each well. The percentage cytotoxicity of compounds was calculated using the following formula:
Where ATC= Absorbance of treated cells and AC= Absorbance of control. Erlotinib was used as positive control in the assay.

[4] = system: MCF-7 (breast cancer cell line); assay: Antiproliferative assay; assay type: cell-based, human; conditions: read-out: Antiproliferative Activity IC50 ± SEM, MCF-7
Description: as §5, §6, §7, §8, §9

[5] = system: A-549 (epithelial cancer cell line); assay: Antiproliferative assay; assay type: cell-based, human; conditions: read-out: Antiproliferative Activity IC50 ± SEM, A-549
Description: as §5, §6, §7, §8, §9

[6] = system: HT-29 (colon cancer cell line); assay: Antiproliferative assay; assay type: cell-based, human; conditions: read-out: Antiproliferative Activity IC50 ± SEM, HT-29
Description: as §5, §6, §7, §8, §9

[7] = Cell viability assay (MTT) on normal cell line; assay type: cell-based, human; conditions: human, four days
Description: as §1, §2, §3, §4

EGFR [8] = biological target: T1, EGFR (Homo sapiens, UniProt P00533); assay: EGFR inhibitory assay (EGFR-TK, DELFIA/time-resolved fluorometry)
T1 sequence (P00533 669-1210): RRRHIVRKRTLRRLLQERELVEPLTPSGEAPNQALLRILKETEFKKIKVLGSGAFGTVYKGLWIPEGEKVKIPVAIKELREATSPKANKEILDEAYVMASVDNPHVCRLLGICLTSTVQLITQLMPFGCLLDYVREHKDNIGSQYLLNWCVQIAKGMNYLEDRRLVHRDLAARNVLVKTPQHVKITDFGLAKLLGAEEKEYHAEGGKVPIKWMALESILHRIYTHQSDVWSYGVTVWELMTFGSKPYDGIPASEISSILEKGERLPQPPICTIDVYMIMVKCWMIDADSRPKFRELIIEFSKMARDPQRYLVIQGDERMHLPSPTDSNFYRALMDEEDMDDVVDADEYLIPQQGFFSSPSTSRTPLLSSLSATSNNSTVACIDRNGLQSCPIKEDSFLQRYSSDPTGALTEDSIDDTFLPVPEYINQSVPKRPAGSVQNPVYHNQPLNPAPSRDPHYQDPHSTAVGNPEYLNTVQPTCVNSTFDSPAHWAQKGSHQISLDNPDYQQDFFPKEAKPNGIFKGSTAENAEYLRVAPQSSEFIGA
Description: EGFR-TK assay was performed to evaluate the inhibitory potency of novel compounds against
EGFR. Baculoviral expression vectors including pBlueBacHis2B and pFASTBacHTc were used
5ʹ upstream to the EGFR sequence comprised a sequence that encoded (His)6. Sf-9 cells were infected for 72h for protein expression. The pellets of Sf-9 cells were solubilized in a buffer containing sodium vanadate (100 µM), aprotinin (10 µg/mL), triton (1%), HEPES buffer (50mM), ammonium molybdate (10 µM), benzamidine HCl (16 µg/mL), NaCl (10 mM), leupeptin (10 µg/mL) and pepstatin (10 µg/mL) at 0°C for 20 min at pH 7.4, followed by centrifugation for 20 min.
To eliminate the non-specifically bound material, a Ni-NTA super flow packed column was used to pass through and wash the crude extract supernatant first with 10 mM and then with 100 mM imidazole. Histidine-linked proteins were first eluted with 250 and then with 500 mM imidazole after (1 picture or pasted object on this page, not shown here)
dialysis against NaCl (50 mM), HEPES (20 mM), glycerol (10%) and 1 µg/mL each of aprotinin, leupeptin and pepstatin for 120 min. The purification was performed either at 4 °C or on ice. To
(§10) record autophosphorylation level, EGFR kinase assay was carried out based on DELFIA/Time-
(§11) Resolved Fluorometry. The compounds were first dissolved in DMSO absolute, after dilution to
Each compound (10 µL) was incubated
(§12) with recombinant enzyme (10 µL, 5 ng for EGFR, 1:80 dilution in 100 mM HEPES) for 10 min at
(§13) 25 °C, after the addition of 5X buffer (10 µL, containing 2 mM MnCl2, 100 µM Na3VO4, 20 mM HEPES and 1 mM DTT) and ATP-MgCl2 (20 µL, containing 0.1 mM ATP and 50 mM MgCl2) and
(§14) incubation for 1h. The negative and positive controls were included in each plate by the incubation
(§15) of enzyme either with or without ATP-MgCl2. The liquid was removed after incubation and the plates
(§16) were washed thrice using wash buffer. Europium-tagged antiphosphotyrosine antibody (75 µL, 400
(§17) ng) was added to each well followed by incubation of 1h and then washing of the plates using buffer.
(§18) The enhancement solution was added to each well and the signal was recorded at excitation and
(§19) The autophosphorylation percentage inhibition by compounds was calculated using the following equation:

caspase-3 [9] = assay: Caspase-3 activation assay; conditions: A-549, vs control untreated cells
Description: as §10, §11
Each compound (10 µL) was incubated
as §12, §13, §14, §15, §16, §17, §18, §19

EGFR [10] = biological target: T1, EGFR; parameters: 645–1186); His6 (N); made in house; host or cells: Sf-9 insect cells (baculovirus; pBlueBacHis2B and pFASTBacHTc vectors; conditions: cited from earlier work
Cytochrome-C = system: Cytochrome-C; parameters: method as in PMID 35195309; conditions: human Panc-1 cancer cells; cited from earlier work
caspase-9 = system: caspase-9; parameters: method as in PMID 35195309; conditions: human Panc-1 cancer cells; cited from earlier work
Bcl-2 = system: Bcl-2; parameters: method as in PMID 35195309; conditions: cited from earlier work
four cancer cell lines = system: four cancer cell lines; parameters: method as in PMID 35195309; conditions: cited from earlier work
caspase-3 [11] = system: caspase-3; parameters: method as in PMID 35195309; conditions: human Panc-1 cancer cells; cited from earlier work
Bax = system: Bax; parameters: method as in PMID 35195309; conditions: vs normal untreated cells; cited from earlier work
[12] = MCF-10A mammary gland epithelial cells

Molecule	IC50 ([2]; Homo sapiens, PANC-1) [nM]	GI50 ([3]; Homo sapiens) [nM]	IC50 ([4]; Homo sapiens, MCF7) [nM]	IC50 ([5]; Homo sapiens, A549) [nM]	IC50 ([6]; Homo sapiens) [nM]	melting point [°C]	viability at 96 h, 50 µM [7, 12] [%]	also measured
4,4′-(((naphthalene-1,8-diylbis(oxy))bis(methylene))bis(1H-1,2,3-triazole-4,1-diyl))-bis-(8-methylquinolin-2(1H)-one) [Compound 4d]	–	–	–	–	–	–	–	Cell Viability % [1]: 86%; IC50 ([2]; Panc-1): 98 ± 9 nM; GI50 [3]: 95 nM; times less potent than 4b (GI50) ([3]; relative to 4b): at least twofold less potent; IC50 ([4]; MCF-7): 95 ± 9 nM; IC50 ([5]; A-549): 90 ± 9 nM; IC50 [6]: 97 ± 9 nM
COc1ccc2[nH]c(=O)cc(-n3cc(COc4cccc5cccc(OCc6cn(-c7cc(=O)[nH]c8ccc(OC)cc78)nn6)c45)nn3)c2c1 [Compound 4c, 4,4′-(((naphthalene-1,8-diylbis(oxy))bis(methylene))bis(1H-1,2,3-triazole-4,1-diyl))-bis-(6-methoxyquinolin-2(1H)-one)]	83 ± 8	80	79 ± 8	78 ± 8	81 ± 8	> 360	87	–
O=C(CSc1nnc(Cn2cc(-c3ccccc3)nn2)o1)Nc1nc(-c2ccc(Cl)cc2)cs1 [Compound VI]	–	–	–	–	–	–	–	IC50 (EGFR [10]): 110 nM; Cytochrome-C level increase (Cytochrome-C): 13 times; Caspase-9 level increase (caspase-9): 19.30 times; Bcl-2 level decrease (Bcl-2): 6.3 fold; GI50 (four cancer cell lines): 230 nM; Caspase-3 level increase (caspase-3 [11]): 7.80 times; Bax level elevation (Bax): 40 fold
CN(C)c1ccc(/C=C/C(=O)c2ccc3ncc(C(N)=O)c(Nc4ccc(Cl)cc4)c3c2)cc1 [III]	–	–	–	–	–	–	–	IC50 (EGFR [10]): 5200 nM

Further lines, with some results ahead:

IC50 ([2]; Homo sapiens, PANC-1) [nM]	GI50 ([3]; Homo sapiens) [nM]	IC50 ([4]; Homo sapiens, MCF7) [nM]	IC50 ([5]; Homo sapiens, A549) [nM]	IC50 ([6]; Homo sapiens) [nM]	melting point [°C]	Molecule	viability at 96 h, 50 µM [7, 12] [%]	also measured
62 ± 6	–	59 ± 6	57 ± 6	65 ± 6	> 360	O=c1cc(-n2cc(COc3cccc4c(OCc5cn(-c6cc(=O)[nH]c7ccccc67)nn5)cccc34)nn2)c2ccccc2[nH]1 [Compound 7a, 4,4′-(((naphthalene-1,5-diylbis(oxy))bis(methylene))bis(1H-1,2,3-triazole-4,1-diyl))-bis-(quinolin-2(1H)-one)]	89	–
75 ± 7	74	74 ± 7	70 ± 7	76 ± 7	> 360	COc1ccc2[nH]c(=O)cc(-n3cc(COc4cccc5c(OCc6cn(-c7cc(=O)[nH]c8ccc(OC)cc78)nn6)cccc45)nn3)c2c1 [Compound 7c, 4,4′-(((naphthalene-1,5-diylbis(oxy))bis(methylene))bis(1H-1,2,3-triazole-4,1-diyl))-bis-(6-methoxyquinolin-2(1H)-one)]	91	–
57 ± 5	54	53 ± 5	50 ± 5	57 ± 5	–	Cc1cccc2c(-n3cc(COc4cccc5c(OCc6cn(-c7cc(=O)[nH]c8c(C)cccc78)nn6)cccc45)nn3)cc(=O)[nH]c12 [Compound 7d, 4,4′-(((naphthalene-1,5-diylbis(oxy))bis(methylene))bis(1H-1,2,3-triazole-4,1-diyl))-bis-(8-methylquinolin-2(1H)-one)]	–	viability at 96 h, 50 µM ([7]; MCF-10A mammary gland epithelial cells (normal cell line)): 89%; IC50 (EGFR [8]): 97 ± 9 nM; fold less effective than erlotinib (EGFR IC50) (EGFR [8]; relative to erlotinib): roughly 1.3 fold; Caspase-3 Fold Change (caspase-3 [9]): 7.40
